Data from patent publication US6706947B2, “Method for screening for agents against cancer using an immunosuppression animal model” (Fremantle Hospital, priority 1996, dated 2004).
≈ marks a conversion by molar mass, not a printed value.

Legend:
[1] = Steady-state plasma concentrations of ketoconazole in sheep (hplc); format: in vivo
Description: Following the first dose on the first study day, venous blood samples (5 ml, anticoagulated with EDTA) were collected at 0.17, 0.33, 0.5, 0.75, 1, 2, 3, 4, 6, 8, 12, 15, 22, 27 and 32 h. […] Ketoconazole administration was continued throughout the latter blood sampling period.
Some blood samples taken on days 18-23 were centrifuged to yield plasma which was frozen at −20° C. until analysed for ketoconazole by a specific hplc method. Aliquots of plasma (0.1 ml) were vortexed vigorously with 1 ml acetonitrile (containing 8 mg of fluoxetine hydrochloride as internal standard) for 15 sec. The mixture was centrifuged at 1200 g for 10 min to sediment proteins, 0.5 ml of the supernatant was aspirated, transferred to a clean tube and evaporated to dryness at 50° C. using dry N2. The extract was reconstituted in 0.2 ml of hplc mobile phase and 0.02 ml aliquots were injected onto the hplc column. The hplc system consisted of a Merck RP Select B C18 column (25 cm×4.6 mm id), a mobile phase of 55% acetonitrile in 0.01% v/v H3PO4 and 0.01% W/V NaCl. The solvent was pumped at a flow rate of 1.5 ml/min and eluting compounds were detected by their UV absorbence at 210 nm.

B16M = details: day 3 in culture, MTT
Description: (§1) All tumour cell lines were incubated at 37° C./5%CO2/95% humidity and the medium was changed every 3 to 4 days. For passage and assay, cells were detached with 0.1% w/v trypsin/0.02% w/v versene (CSL).
(§2) The assay was performed according to the method of Mosmann (1983). […] 20 μl of MTT (stock at 5 mg/ml in PBS) was added to each well and the plates incubated at 37° C. for 4 hours. 100 ul of 0.04N HCl-isopropanol was then added to each well and the dark blue formazan-crystals were dissolved by mixing. Optical densities (ODs) were determined at 590 nm using a Titertek multiscan photometer (Flow Labs.) and were directly proportional to cell growth (Mosmann, 1983).
(§3) Tumour cell growth inhibition was assessed using the MTT assay.
(§4) If the values fall in a straight line the effects are additive, and if the points form a concave curve, the effects are synergistic. […] The fractional survival of the individual reagents is determined and the two values are multiplied together. The product of the two values becomes the expected cell survival, and is compared with the observed fractional survival when the two reagents are tested together. […]

HT-29 = details: HT-29, day 3 in culture, MTT
Description: as §1, §2, §3, §4

SKMEL = details: day 3 in culture, MTT
Description: as §1, §2, §3, §4

[2] = literature (Borel, 1989; Reynolds et al, 1992; Eichenberger et al, 1989a); cited from earlier work

## CC(=O)N1CCN(c2ccc(OCC3COC(Cn4ccnc4)(c4ccc(Cl)cc4Cl)O3)cc2)CC1 (centres unmarked) [Ketoconazole]
[1]; sheep 14, days 18-23, ketoconazole 10 mg/kg po twice daily
  Steady-state concentration of ketoconazole in plasma (mean of trough samples): 2.6 mg/L
[1]; sheep 15, days 18-23, ketoconazole 10 mg/kg po twice daily
  Steady-state concentration of ketoconazole in plasma (mean of trough samples): 2.19 mg/L
[1]; sheep 16, days 18-23, ketoconazole 10 mg/kg po twice daily
  Steady-state concentration of ketoconazole in plasma (mean of trough samples): 1.63 mg/L
[1]; sheep 17, days 18-23, ketoconazole 10 mg/kg po twice daily
  Steady-state concentration of ketoconazole in plasma (mean of trough samples): 3.04 mg/L
B16M
  ED50 (± SD): 18.2 ± 3.9 µg/mL (≈ 34.2 µM)
HT-29
  ED50 (± SD): 12.7 ± 2.0 µg/mL (≈ 23.9 µM)
SKMEL
  ED50 (± SD): 28.3 ± 1.7 µg/mL (≈ 53.3 µM)
[2]
  Maximum therapeutic plasma concentration: 0.10 µg/mL
